From patent US11572373B2, “Maytansinoid-based drug delivery systems” (LADRX CORPORATION, priority 2017, dated 2023)

Assay: In vitro cytotoxicity in different cell lines using the CellTiter-Blue Cell Viability Assay
Format: cell-based, human
Conditions: Homo sapiens, 96 h, read-out: Geomean IC50

| SMILES | IC50 [nM] |
| --- | --- |
| COc1cc2cc(c1Cl)N(C)C(=O)C[C@H](OC(=O)CSc1ccc(C(C)=O)cc1)[C@]1(C)O[C@H]1[C@H](C)[C@@H]1C[C@@](O)(NC(=O)O1)[C@H](OC)/C=C/C=C(\C)C2 [Compound 11] | 0.21 |
| COc1cc2cc(c1Cl)N(C)C(=O)C[C@H](OC(=O)Nc1ccc(C(C)=O)cc1)[C@]1(C)O[C@H]1[C@H](C)[C@@H]1C[C@@](O)(NC(=O)O1)[C@H](OC)/C=C/C=C(\C)C2 [Compound 28] | 10.6 |
| COc1cc2cc(c1Cl)N(C)C(=O)C[C@H](OC(=O)Cc1ccc(C(C)=O)c(F)c1)[C@]1(C)O[C@H]1[C@H](C)[C@@H]1C[C@@](O)(NC(=O)O1)[C@H](OC)/C=C/C=C(\C)C2 [Compound 5] | 0.9 |
| COc1cc2cc(c1Cl)N(C)C(=O)C[C@H](OC(=O)[C@H](C)N(C)C(=O)CCC(C)=O)[C@]1(C)O[C@H]1[C@H](C)[C@@H]1C[C@@](O)(NC(=O)O1)[C@H](OC)/C=C/C=C(\C)C2 [Compound 44] | 7.21 |
| COc1cc2cc(c1Cl)N(C)C(=O)C[C@H](OC(=O)C1CCCN1C(=O)c1ccc(C(C)=O)cc1)[C@]1(C)O[C@H]1[C@H](C)[C@@H]1C[C@@](O)(NC(=O)O1)[C@H](OC)/C=C/C=C(\C)C2 (some centres unmarked) [Compound 20] | 0.94 |
| COc1cc2cc(c1Cl)N(C)C(=O)C[C@H](OC(=O)CCNC(=O)c1ccc(C(C)=O)cc1)[C@]1(C)O[C@H]1[C@H](C)[C@@H]1C[C@@](O)(NC(=O)O1)[C@H](OC)/C=C/C=C(\C)C2 [Compound 27] | 11.7 |
| COc1cc2cc(c1Cl)N(C)C(=O)C[C@H](OC(=O)CN(C)C(=O)c1ccc(C(C)=O)nc1)[C@]1(C)O[C@H]1[C@H](C)[C@@H]1C[C@@](O)(NC(=O)O1)[C@H](OC)/C=C/C=C(\C)C2 [Compound 26] | 18.5 |
| COc1cc2cc(c1Cl)N(C)C(=O)C[C@H](OC(=O)C1CCCN1C(=O)Nc1ccc(C(C)=O)cc1)[C@]1(C)O[C@H]1[C@H](C)[C@@H]1C[C@@](O)(NC(=O)O1)[C@H](OC)/C=C/C=C(\C)C2 (some centres unmarked) [Compound 23] | 26.8 |
| COc1cc2cc(c1Cl)N(C)C(=O)C[C@H](OC(=O)C(C)(C)Oc1ccc(C(C)=O)cc1)[C@]1(C)O[C@H]1[C@H](C)[C@@H]1C[C@@](O)(NC(=O)O1)[C@H](OC)/C=C/C=C(\C)C2 [Compound 19] | 1.12 |
| COc1cc2cc(c1Cl)N(C)C(=O)C[C@H](OC(=O)CN(C)C(=O)c1ccc(C(C)=O)cc1)[C@]1(C)O[C@H]1[C@H](C)[C@@H]1C[C@@](O)(NC(=O)O1)[C@H](OC)/C=C/C=C(\C)C2 [Compound 25] | 8.47 |
| COc1cc2cc(c1Cl)N(C)C(=O)C[C@H](OC(=O)CSc1ccc(C(C)=O)cc1C)[C@]1(C)O[C@H]1[C@H](C)[C@@H]1C[C@@](O)(NC(=O)O1)[C@H](OC)/C=C/C=C(\C)C2 [Compound 12] | 0.76 |
| COc1cc2cc(c1Cl)N(C)C(=O)C[C@H](OC(=O)CCc1ccc(C(C)=O)cc1)[C@]1(C)O[C@H]1[C@H](C)[C@@H]1C[C@@](O)(NC(=O)O1)[C@H](OC)/C=C/C=C(\C)C2 [Compound 9] | 0.19 |
| COc1cc2cc(c1Cl)N(C)C(=O)C[C@H](OC(=O)CCCc1ccc(C(C)=O)cc1)[C@]1(C)O[C@H]1[C@H](C)[C@@H]1C[C@@](O)(NC(=O)O1)[C@H](OC)/C=C/C=C(\C)C2 [Compound 8] | 0.1 |
| COc1cc2cc(c1Cl)N(C)C(=O)C[C@H](OC(=O)CSc1ccc(C(C)=O)cc1C(F)(F)F)[C@]1(C)O[C@H]1[C@H](C)[C@@H]1C[C@@](O)(NC(=O)O1)[C@H](OC)/C=C/C=C(\C)C2 [Compound 13] | 0.88 |
| COc1cc(C(C)=O)ccc1SCC(=O)O[C@H]1CC(=O)N(C)c2cc(cc(OC)c2Cl)C/C(C)=C/C=C/[C@@H](OC)[C@@]2(O)C[C@H](OC(=O)N2)[C@@H](C)[C@@H]2O[C@@]12C [Compound 17] | 0.45 |
| COc1cc2cc(c1Cl)N(C)C(=O)C[C@H](OC(=O)CSc1ccc(C(C)=O)cc1Br)[C@]1(C)O[C@H]1[C@H](C)[C@@H]1C[C@@](O)(NC(=O)O1)[C@H](OC)/C=C/C=C(\C)C2 [Compound 16] | 0.32 |
| COc1cc2cc(c1Cl)N(C)C(=O)C[C@H](OC(=O)Cc1ccc(C(C)=O)c([N+](=O)[O-])c1)[C@]1(C)O[C@H]1[C@H](C)[C@@H]1C[C@@](O)(NC(=O)O1)[C@H](OC)/C=C/C=C(\C)C2 [Compound 7] | 0.89 |
| COc1cc2cc(c1Cl)N(C)C(=O)C[C@H](OC(=O)[C@H](C)N(C)C(=O)c1ccc(C(C)=O)cc1)[C@]1(C)O[C@H]1[C@H](C)[C@@H]1C[C@@](O)(NC(=O)O1)[C@H](OC)/C=C/C=C(\C)C2 [Compound 24] | 9.04 |
| COc1cc2cc(c1Cl)N(C)C(=O)C[C@H](OC(=O)CNC(=O)c1ccc(C(C)=O)cc1)[C@]1(C)O[C@H]1[C@H](C)[C@@H]1C[C@@](O)(NC(=O)O1)[C@H](OC)/C=C/C=C(\C)C2 [Compound 21] | 1.67 |
| COc1cc2cc(c1Cl)N(C)C(=O)C[C@H](OC(=O)CSc1ccc(C(C)=O)cc1Cl)[C@]1(C)O[C@H]1[C@H](C)[C@@H]1C[C@@](O)(NC(=O)O1)[C@H](OC)/C=C/C=C(\C)C2 [Compound 15] | 0.18 |
| COc1cc2cc(c1Cl)N(C)C(=O)C[C@H](OC(=O)CN(C)c1ccc(C(C)=O)cc1)[C@]1(C)O[C@H]1[C@H](C)[C@@H]1C[C@@](O)(NC(=O)O1)[C@H](OC)/C=C/C=C(\C)C2 [Compound 10] | 0.3 |
| COc1cc2cc(c1Cl)N(C)C(=O)C[C@H](OC(=O)CSc1ccc(C(C)=O)cc1[N+](=O)[O-])[C@]1(C)O[C@H]1[C@H](C)[C@@H]1C[C@@](O)(NC(=O)O1)[C@H](OC)/C=C/C=C(\C)C2 [Compound 14] | 1.54 |
| COc1cc2cc(c1Cl)N(C)C(=O)C[C@H](OC(=O)Cc1ccc(C(C)=O)cc1[N+](=O)[O-])[C@]1(C)O[C@H]1[C@H](C)[C@@H]1C[C@@](O)(NC(=O)O1)[C@H](OC)/C=C/C=C(\C)C2 [Compound 6] | 2.14 |
| COc1cc2cc(c1Cl)N(C)C(=O)C[C@H](OC(=O)COc1ccc(C(C)=O)cc1)[C@]1(C)O[C@H]1[C@H](C)[C@@H]1C[C@@](O)(NC(=O)O1)[C@H](OC)/C=C/C=C(\C)C2 [Compound 18] | 0.13 |
| CCN(CC(=O)O[C@H]1CC(=O)N(C)c2cc(cc(OC)c2Cl)C/C(C)=C/C=C/[C@@H](OC)[C@@]2(O)C[C@H](OC(=O)N2)[C@@H](C)[C@@H]2O[C@@]12C)C(=O)c1ccc(C(C)=O)cc1 [Compound 22] | 25 |

Same assay, conditions: Homo sapiens; geometric mean over the n cell lines tested, 96 h treatment, CellTiter-Blue; read-out: Geomean IC50

| SMILES | IC50 [nM] |
| --- | --- |
| COc1cc2cc(c1Cl)N(C)C(=O)CC(O)C1(C)OC1C(C)C1CC(O)(NC(=O)O1)C(OC)/C=C/C=C(\C)C2 (centres unmarked) [Maytansinol, reference compound] | 86 |
